# According to patent US10450300B2, “Wnt signaling pathway inhibitors and therapeutic applications thereof” (Suzhou Yunxuan Yiyao Keji Youxian Gongsi, priority 2015, dated 2019):
# Tested on: Wnt pathway
# Test: Wnt pathway Super-top flash (STF) reporter gene assay (primary assay)
# Assay type: cell-based
# Conditions: HEK293 STF cells co-cultured 1:1 with L Wnt3A cells; 48 h incubation; inhibition of luminescence signaling
# Experimental: The primary assay is based on Wnt pathway Super-top flash (STF) reporter gene assay:
# HEK293 STF stable clones (HEK293 cells stably transfected with “Super-Top Flash” TCF-luciferase reporter plasmid) were kept in complete culture medium (DMEM with 4 mM L-Gln, 1.5 g/L sodium bicarbonate and 4.5 g/L glucose containing 6 μg/mL Blasticidin and 10% FBS). L Wnt3A cells (CRL-2647, ATCC) were kept in DMEM (Gibico) containing 10% FBS (Hyclone). HEK293 STF and L Wnt3A cells were harvested when 90% confluence and cell suspension was mixed with a fixed ratio of 1:1 (HEK293 STF: L Wnt3A). 100 μL/well of mixed cells suspension was added to the 96-well-plate with final cell concentration of 12,000 cells/well and then cultured for an additional 24 hours before adding compounds.
# Compounds were diluted in DMSO in sequence and then diluted with DMEM medium. 20 μL medium containing compound was added to the cells according to the pre-setting dose. Cell plates were incubated at 37° C. for an additional 48 hours.
# 50 μL luciferase solution (Bright-Glo, Promega) was added to each well […] the 48 h incubation. The plates were incubated at room temperature for 5 min under gentle shaking. Luminescence signaling was measured with a plate reader (PHERAstar FS, BMG). The IC50 (potency) of compounds was calculated based on the inhibition of luminescence signaling.
row,Compound,IC50
1,Cc1cc(-c2ccc(CNc3cc(-c4ccc5ccccc5c4)nc(N4CCCC4)n3)cc2)ccn1 [Compound A-141],3000 nM
2,CCNc1nc(NCc2ccc(-c3ccnc(C)c3)cc2)cc(-c2ccc3ccccc3c2)n1 [Compound A-142],3000 nM
3,Cc1cc(-c2ccc(CNc3ncnc(-c4ccc5ccccc5c4)c3C)cc2)ccn1 [Compound A-143],2000 nM
4,Cc1cc(-c2ccc(CNc3ncnc(-c4ccc5ccccc5c4)c3C#N)cc2)ccn1 [Compound A-144],40 nM
5,Cc1cc(-c2ccc(CNc3cc(N4CCc5ccccc5C4=O)ncn3)cc2)ccn1 [Compound A-145],1130 nM
6,c1ccc2cc(-c3cc(NCc4ccc(-c5ccncc5)cc4)ncn3)ccc2c1 [Compound A-146],68 nM
7,Cc1cc(-c2ccc(C(C)Nc3cc(-c4ccc5ccccc5c4)ncn3)cc2)ccn1 (centres unmarked) [Compound A-147],40 nM
8,Cc1cc(-c2ccc(CNc3cc(-c4ccc5cnccc5c4)ncn3)cc2)ccn1 [Compound A-148],10 nM
9,Cc1cc(-c2ccc(CNc3cccc(-c4ccc5ccccc5c4)c3)cc2)ccn1 [Compound A-149],603 nM
10,Cc1cc(-c2ccc(CNc3cccc(-c4ccc5ccccc5c4)n3)cc2)ccn1 [Compound A-150],250 nM
11,Cc1cc(-c2ccc(CNc3ccnc(-c4ccc5ccccc5c4)n3)cc2)ccn1 [Compound A-151],2000 nM
12,Cc1cc(-c2ccc(CNc3nccc(-c4ccc5ccccc5c4)n3)cc2)ccn1 [Compound A-152],4.9 nM
13,Cc1cc(-c2ccc(CNc3cc(-c4ccc5ccccc5c4)nc(N)n3)cc2)ccn1 [Compound A-153],3000 nM
14,Cc1cc(-c2ccc(CNc3nccc(-c4ccc5ncccc5c4)n3)cc2)ccn1 [Compound A-154],1.2 nM
15,Cc1cc(-c2ccc(CNc3nccc(N4CCc5ccccc5C4)n3)cc2)ccn1 [Compound A-155],229 nM
16,Cc1cc(-c2ccc(CNc3nccc(N4CCc5ncccc5C4)n3)cc2)ccn1 [Compound A-156],12 nM

row,Compound,IC50
1,Cc1cc(-c2ccc(CNc3ccnc(-c4ccc5ncccc5c4)n3)cc2)ccn1 [Compound A-157],3000 nM
2,Cc1cc(-c2ccc(CNc3ccnc(N4CCc5ncccc5C4)n3)cc2)ccn1 [Compound A-158],3000 nM
3,Cc1cc(-c2ccc(CNc3nccc(-c4ccc5ncncc5c4)n3)cc2)ccn1 [Compound A-159],17 nM
4,Cc1cc(-c2ccc(CNc3ncnc(-c4ccc5ncccc5c4)n3)cc2)ccn1 [Compound A-160],6.7 nM
5,Cc1cc(-c2ccc(CNc3nc(N4CCc5ncccc5C4)ncc3F)cc2)ccn1 [Compound A-161],3000 nM
6,Cc1cc(-c2ccc(CNc3ccnc(-c4ccc5ccccc5c4)c3)cc2)ccn1 [Compound A-164],3000 nM
7,Cc1cc(-c2ccc(CNc3cc(-c4ccc5ncccc5c4)ccn3)cc2)ccn1 [Compound A-166],3.6 nM
8,Cc1cc(-c2ccc(CNc3ncnc(-c4ccc5ccccc5c4)n3)cc2)ccn1 [Compound A-167],120 nM
9,Cc1cc(-c2ncc(CNc3nccc(-c4ccc5ncccc5c4)n3)cc2F)ccn1 [Compound A-168],0.85 nM
10,Cc1cc(-c2ccc(CNc3nccc(-c4ccc5ncccc5c4)n3)cn2)ccn1 [Compound A-169],4.9 nM
11,Cc1cc(-c2ncc(CNc3nccc(-c4ccc5ncccc5c4)n3)cc2C)ccn1 [Compound A-170],3.7 nM
12,Cc1cc(-c2ncc(CNc3nccc(-c4ccc5ncccc5c4)n3)cc2C#N)ccn1 [Compound A-171],0.31 nM
13,Cc1cc(-c2ncc(CNc3nccc(-c4ccc5ncccc5c4)n3)cn2)ccn1 [Compound A-172],1.7 nM
14,c1cnc2ccc(-c3ccnc(NCc4ccc(-n5ccnc5)cc4)n3)cc2c1 [Compound A-173],106 nM
15,Cc1cc(-c2cnc(CNc3nccc(-c4ccc5ncccc5c4)n3)cn2)ccn1 [Compound A-174],2.7 nM
16,COc1cc(CNc2nccc(-c3ccc4ncccc4c3)n2)cnc1-c1ccnc(C)c1 [Compound A-175],0.74 nM
